Laboratory results: PubChem BioAssay AID1053146 (Broad Institute, 2014)

Test system: HepG2 BODIPY-LDL uptake, high-content imaging
Assay: increase of fluorescent LDL uptake in hepatoma cells – imaging, BODIPY-LDL, cherry-pick, dose response (AID 1053146)

SMILES: CN1C(=O)c2cc(NC(=O)c3ccc(C(F)(F)F)cc3)ccc2OC[C@@H]2O[C@H](CC(=O)NC3Cc4ccccc4C3)CC[C@@H]21
- EC50: 1.1 µM

SMILES: CN1C(=O)c2cc(NC(=O)c3ccc(C(F)(F)F)cc3)ccc2OC[C@@H]2O[C@@H](CC(=O)NC3Cc4ccccc4C3)CC[C@@H]21
- EC50: 4.6 µM
